Laboratory results: patent US12503437B2, “1,1-dimethyl-2-[(E)-2-phenylethenyl]-1H-benzo[e]indole derivatives and uses thereof” (Kaunas University of Technology, priority 2023, dated 2025)
Like-named read-outs stand apart in the source and are kept apart here.

Experiments:
[1] = system: G361 cells (human skin melanoma); experiment: MTT cell viability assay with photodynamic treatment; assay type: cell-based; conditions: 4 h treatment, further 72 h, MTT
Method: For photodynamic treatments, G361 cells (human skin melanoma) were cultivated in DMEM medium without phenol red supplemented with 10% fetal bovine serum, 100 U/mL penicillin, 100 μg/mL streptomycin, 2 mM glutamine, at 37° C. in 5% CO2 atmosphere. Cells were treated with test compounds and after 4 h were irradiated (the maximal wavelength emission of 414 nm and different total doses up to 10 J/cm^2). Further cultivation lasted for subsequent 16, 24 or 72 h.
Cell viability (EC50) was determined using the MTT (Sigma-Aldrich) assay in 96-well microplates. Cells were seeded, next day treated with test compounds for 4 h and subsequently irradiated (the maximal wavelength emission of 414 nm and total dose of 2.5 and 10 J/cm^2). After irradiation, the cells were incubated for further 72 h and then the MTT solution was added. Cells were incubated for another 4 h at 37° C. and then the 0.1% SDS was added to the wells to solubilize the violet formazan crystals. The measurement of absorbance was carried out on reader Tecan Infinite M200Pro at 570 nm. Dark viability was measured in parallel under the same conditions without irradiation.

[2] = Absorption and fluorescence properties in water; assay type: physicochemical; conditions: for λem: excitation wavelength 380 nm
Method: To determine the wavelength of light, at which 1,1-dimethyl-2-[(E)-2-phenylethenyl]-1H-benzo[e]indole derivatives should be irradiated for the investigation of their photodynamic activity, the absorption and fluorescence properties thereof were measured in water. The excitation wavelength λex was set to 380 nm. Based on the results an in-house constructed LED based light source specifically designed for the irradiation of 96-well microplates and Petri dishes (Tomecka et al., CZ302829B6, 2006) was chosen, with a maximal wavelength emission of 414 nm and light intensity set to 20 mW/cm^2.

[3] = G-361, dark kept G361 cells, read-out: G361 - EC50, Dark
[4] = G-361, light or radiation study, light irradiated (414 nm, 10 J/cm^2) G361 cells, irradiation, read-out: G361 - EC50, 10 J/cm^2

With `CC1(C)C(/C=C/c2ccccc2)=Nc2ccc3ccccc3c21` [Compound 3a, 1,1-Dimethyl-2-[(E)-2-phenylethenyl]-1H-benzo[e]indole] the EC50 [1, 3] was 5800 nM, the EC50 [1, 4] was 2000 nM and the Stokes shift [2] was 133 nm. For the same compound, the λabs [2] was 397 nm and the λem [2] was 530 nm.

With `CC1(C)C(/C=C/c2cc(C(F)(F)F)cc(C(F)(F)F)c2)=Nc2ccc3ccccc3c21` [Compound 3b, 2-{(E)-2-[3,5-Bis(trifluoromethyl)phenyl]ethenyl}-1,1-dimethyl-1H-benzo[e]indole] the EC50 [1, 3] was greater than 10000 nM, the EC50 [1, 4] was 1300 nM and the Stokes shift [2] was 109 nm. It also gave a λabs [2] of 400 nm and a λem [2] of 509 nm.

Work on `CC1(C)C(/C=C/c2cc([N+](=O)[O-])ccc2Cl)=Nc2ccc3ccccc3c21` [Compound 3c, 2-[(E)-2-(2-Chloro-5-nitrophenyl)ethenyl]-1,1-dimethyl-1H-benzo[e]indole] yielded an EC50 [1, 3] of 6900 nM, an EC50 [1, 4] of 1200 nM and a Stokes shift [2] of 98 nm. The λabs [2] was 443 nm and the λem [2] was 541 nm.

In the case of `CC1(C)C(/C=C/c2ccc(F)cc2)=Nc2ccc3ccccc3c21` [Compound 3d, 2-[(E)-2-(4-Fluorophenyl)ethenyl]-1,1-dimethyl-1H-benzo[e]indole], the EC50 [1, 3] is reported as 7300 nM, the EC50 [1, 4] is reported as 4100 nM and the Stokes shift [2] is reported as 102 nm. The λabs [2] was 430 nm and the λem [2] was 532 nm.

Work on `CC1(C)C(/C=C/c2ccc(C(F)(F)F)cc2)=Nc2ccc3ccccc3c21` [Compound 3e, 1,1-Dimethyl-2-{(E)-2-[4-(trifluoromethyl)phenyl]ethenyl}-1H-benzo[e]indole] yielded an EC50 [1, 3] of 3600 nM, an EC50 [1, 4] of 500 nM and a Stokes shift [2] of 116 nm. For the same compound, the λabs [2] was 415 nm and the λem [2] was 531 nm.

With `COc1ccc(/C=C/C2=Nc3ccc4ccccc4c3C2(C)C)cc1[N+](=O)[O-]` [Compound 3f, 2-[(E)-2-(4-Methoxy-3-nitrophenyl)ethenyl]-1,1-dimethyl-1H-benzo[e]indole] the EC50 [1, 3] was 4900 nM, the EC50 [1, 4] was 200 nM and the Stokes shift [2] was 146 nm. For the same compound, the λabs [2] was 403 nm and the λem [2] was 549 nm.

With `CC1(C)C(/C=C/c2ccc(Cl)c([N+](=O)[O-])c2)=Nc2ccc3ccccc3c21` [Compound 3h, 2-[(E)-2-(4-Chloro-3-nitrophenyl)ethenyl]-1,1-dimethyl-1H-benzo[e]indole] the EC50 [1, 3] was 7200 nM, the EC50 [1, 4] was 300 nM and the Stokes shift [2] was 106 nm. It also gave a λabs [2] of 426 nm and a λem [2] of 532 nm.

For `CC1(C)C(/C=C/c2ccc(F)c([N+](=O)[O-])c2)=Nc2ccc3ccccc3c21` [Compound 3i, 2-(E)-2-(4-Fluoro-3-nitrophenyl)ethenyl-1,1-dimethyl-1H-benzo[e]indole], the EC50 [1, 3] was 7800 nM, the EC50 [1, 4] was 2100 nM and the Stokes shift [2] was 126 nm. For the same compound, the λabs [2] was 399 nm and the λem [2] was 525 nm.

With `CC1(C)C(/C=C/c2ccc(F)c(C#N)c2)=Nc2ccc3ccccc3c21` [Compound 3j, 5-[(E)-2-(1,1-Dimethyl-1H-benzo[e]indol-2-yl)ethenyl]-2-fluorobenzonitrile] the EC50 [1, 3] was 5100 nM, the EC50 [1, 4] was 1300 nM and the Stokes shift [2] was 154 nm. It also gave a λabs [2] of 369 nm and a λem [2] of 523 nm.

With `Cc1ccc(/C=C/C2=Nc3ccc4ccccc4c3C2(C)C)cc1[N+](=O)[O-]` [Compound 3k, 1,1-Dimethyl-2-[(E)-2-(4-methyl-3-nitrophenyl)ethenyl]-1H-benzo[e]indole] the EC50 [1, 3] was 6900 nM, the EC50 [1, 4] was 1300 nM and the Stokes shift [2] was 98 nm. For the same compound, the λabs [2] was 425 nm and the λem [2] was 523 nm.

With `CC1(C)C(/C=C/c2ccc3ccccc3c2)=Nc2ccc3ccccc3c21` [Compound 3l, 1,1-Dimethyl-2-[(E)-2-(naphthalen-2-yl)ethenyl]-1H-benzo[e]indole] the EC50 [1, 3] was greater than 10000 nM, the EC50 [1, 4] was 1300 nM and the Stokes shift [2] was 86 nm. The λabs [2] was 437 nm and the λem [2] was 523 nm.

In the case of `CC1(C)C(/C=C/c2cccc([N+](=O)[O-])c2)=Nc2ccc3ccccc3c21` [Compound 3m, 1,1-Dimethyl-2-[(E)-2-(3-nitrophenyl)ethenyl]-1H-benzo[e]indole], the EC50 [1, 3] is reported as 2100 nM, the EC50 [1, 4] is reported as 300 nM and the Stokes shift [2] is reported as 89 nm. For the same compound, the λabs [2] was 424 nm and the λem [2] was 513 nm.

Compound `CC1(C)C(/C=C/c2cccc(C(F)(F)F)c2)=Nc2ccc3ccccc3c21` [Compound 3n, 1,1-Dimethyl-2-{(E)-2-[3-(trifluoromethyl)phenyl]ethenyl}-1H-benzo[e]indole] has an EC50 [1, 3] of 7800 nM, an EC50 [1, 4] of 1300 nM and a Stokes shift [2] of 94 nm. For the same compound, the λabs [2] was 426 nm and the λem [2] was 520 nm.

Work on `CC1(C)C(/C=C/c2cccc3ccccc23)=Nc2ccc3ccccc3c21` [Compound 3o, 1,1-Dimethyl-2-[(E)-2-(naphthalen-1-yl)ethenyl]-1H-benzo[e]indole] yielded an EC50 [1, 3] greater than 10000 nM, an EC50 [1, 4] of 400 nM and a Stokes shift [2] of 113 nm. It also gave a λabs [2] of 445 nm and a λem [2] of 558 nm.

With `CC1(C)C(/C=C/c2ccccc2[N+](=O)[O-])=Nc2ccc3ccccc3c21` [Compound 3p, 1,1-Dimethyl-2-[(E)-2-(2-nitrophenyl)ethenyl]-1H-benzo[e]indole] the EC50 [1, 3] was 7800 nM, the EC50 [1, 4] was 1100 nM and the Stokes shift [2] was 132 nm. It also gave a λabs [2] of 434 nm and a λem [2] of 566 nm.
